Legend:
[1] = test system: guinea pig tracheal rings; experiment: Ex vivo airway smooth muscle force, prevention or relaxation of a contraction (Example 5); conditions: solo therapy; vs vehicle
Protocol: The chloride channel blocker NPPB and the chloride transporter blocker bumetanide were evaluated for their ability to prevent an initial contraction (n=5) (FIG. 23A) or to relax an existing contraction (n=6) (FIG. 23B).
As a proof of concept for chloride channel blockade in general, another chloride channel blocker, 5-nitro-2-(3-phenylpropylamino)-benzoic acid (NPPB) was used in an ex vivo guinea pig airway smooth muscle model.

[2] = test system: guinea pig tracheal rings; experiment: Relaxation of the maintenance phase of a pre-established acetylcholine contraction, guinea pig tracheal rings; conditions: alone; pre-contracted with EC50 acetylcholine
Protocol: Animal protocols were approved by the Columbia University Animal Care and Use Committee. Male Hartley guinea pigs weighing approximately 400 g were anesthetized with intraperitoneal injection of sodium pentobarbital (100 mg/kg). Trachea were removed and transferred to ice cold Krebs-Henseleit (KH) buffer of the following composition (in mM): NaCl 118, KCl 5.6, CaCl2 0.5, MgSO4 0.24, NaH2PO4 1.3, NaHCO3 25, glucose 5.6, pH 7.4. Epithelial-denuded tracheal rings were prepared using a dissecting microscope. Epithelium was removed by gently passing cotton fibers through the lumen of the tracheal rings. The rings were suspended in 4 mL-water jacketed organ baths (37° C.: Radnoti Glass Technology, Monrovia, Calif.) and connected to a Grass FT03 force transducer (Grass Telefactor, West Warwick, R.I.) using silk sutures. The transducers were coupled to the computer with BioPac hardware and data was collected using Acqknowledge 7.3.3 software (BioPac Systems, Goleta, Calif.). KH buffer was bubbled with a gas mixture of 95% oxygen and 5% carbon dioxide and buffer was exchanged every 15 minutes for 1 hour during equilibration of tracheal rings at 1 g resting tension. […].
Chloride channel blockers were then tested against the plateau phase of an established acetylcholine contraction. […]

[3] = test system: calcium activated chloride channel; experiment: Whole cell voltage clamp, spontaneous transient inward currents (STICs) in a single guinea pig airway smooth muscle cell; type: cell-based; conditions: about 100 μM bath application after TEA; holding potential about −60 mV
Text: Epithelial denuded guinea pig tracheal rings were suspended in organ baths under 1 g resting tension with continuous digital recordings of muscle force. In separate studies, guinea pig airway smooth muscle cells were enzymatically dispersed and cultured.
Glass-bottom dishes served as a disposable recording chamber. ALA VM-8, an 8-chamber pressure-driven drug application system, was used in a still bath of extracellular salt solution. Whole-cell intracellular voltage recordings under current clamp conditions were performed with a 2-kHz Bessel filter, recording at 10 kHz using an Axopatch 200b amplifier (Axon Instruments, Foster City, Calif., USA). Electrodes were pulled using a P-97 micropipette puller from 1.5-mm OD borosilicate capillary glass (Sutter Instruments, Novato, Calif., USA). Glass electrode resistances ranged from 5 to 10 MO with intracellular solution. Whole-cell intracellular current recordings under voltage-clamp conditions were performed with a 2-kHz Bessel filter, recording at 10 kHz using an Axopatch 200b amplifier. For current measurements (FIG. 11) intracellular solutions consisted of (in mM) 140 TEA-Cl, 5 MgATP, 5 EGTA, 1 MgCl2, 10 HEPES, and 5 CaCl2 (pH 7.2). […] TEA-Cl was included in the buffer to enhance STICs which were then recorded during the addition of 100 μM niflumic acid. […] All recordings were analyzed on Clampfit 8.0 software (Molecular Devices).

rat lung slices = experiment: Airway lumen area in peripheral small airways of rat lung slices; conditions: 100 μM NFA; TEA-induced contraction
Protocol: The measurement of airway contraction of a luminal area of small lung airways using the ex vivo rat lung slice method was performed as described (Perez-Zoghbi et al., 2007). The trachea was cannulated with an intravenous catheter, and after the chest cavity was opened, the collapsed lungs were reinflated with 1.3±0.1 ml of 2% agarose (low-gelling temperature) in Sigma-Hanks' Balanced Salt solution (sHBSS), followed by the injection of 0.2±0.1 of air to flush the agarose-sHBSS out of the airways and into the distal alveolar space. Subsequently, a warm (37° C.) solution of gelatin (type A, porcine skin, 300 bloom, 6% in sHBSS) was perfused through the intrapulmonary blood vessels via the pulmonary artery by injecting about 0.3 ml into the right ventricle. The warm agar and gelatin were gelled with cold sHBSS. A single lung lobe was removed and cut into serial sections of about 130 μm thick with a vibratome at about 4° C., starting at the lung periphery. Slices were maintained in DMEM (Invitrogen) at 37° C. and 10% CO2 for up to 3 days. At 37° C., the gelatin in the blood vessel lumen dissolved, leaving the blood vessel lumen empty. Lung slices were mounted in a custom-made perfusion chamber and held in place with a small sheet of nylon mesh. A second cover glass edged with silicone grease was placed over the lung slice. Perfusion of the lung slice was performed using a gravity-fed perfusion system. The volume of the chamber was about 100 μl with a perfusion rate of about 800 μl/min. […] Digital images were recorded in time lapse (30 frames/min). The area of the bronchiole and arteriole lumen was calculated, from each image, by pixel summing using custom-written software. Experiments were performed at room temperature.

| Compound | relaxation of an existing contraction [1] | relaxation of established acetylcholine contraction [2] | spontaneous transient inward currents (STICs) [3] | relaxation of TEA-contracted peripheral airway (lumen area) (rat lung slices) |
| --- | --- | --- | --- | --- |
| CCCCNc1cc(C(=O)O)cc(S(N)(=O)=O)c1Oc1ccccc1 [bumetanide] | effective in relaxing an existing contraction | significantly relaxed an acetylcholine contraction |  |  |
| O=C(O)c1cccnc1Nc1cccc(C(F)(F)F)c1 [niflumic acid] |  |  | abolishes STIC's | significantly relaxes the peripheral airway contracted with TEA |

From patent US20140024683A1, “CHLORIDE CHANNEL AND CHLORIDE TRANSPORTER MODULATORS FOR THERAPY IN SMOOTH MUSCLE DISEASES” (priority 2011, published 2014)
